Assays:
[1] = tested on: late-stage gametocytes (IV and V) of P. falciparum NF54; assay: Late-stage gametocyte bioluminescence assay, luciferase-expressing NF54; format: cell-based, Plasmodium falciparum; settings: for Pf gametocytes inhibition: 1 μM; for inhibition at 20 µM: Plasmodium falciparum, NF54, 48 h, read-out: Pf gametocytes Inhibition (%)
Description: For the in vitro culture of sexual stages of P. falciparum NF54 Luminescent strain, the Tripathi protocol was followed.
Parasite asexual stages were synchronized, and ring-stage parasites were incubated with a parasite-conditioned medium to induce stress and trigger gametocyte induction. After sexually committed parasites invaded new erythrocytes, N-acetylglucosamine was added to prevent further invasion and clear residual asexual parasites.
When a predominance of late stage (IV and V) gametocytes was identified and counted together, , the MACS magnetic system was used for gametocyte enrichment, as previously described. ,
The column content was eluted with RPMI medium into a 15 mL Falcon tube until translucent medium appeared, yielding ∼ 10 mL of eluate. The sample was centrifuged at 1500 rpm for 5 min at 37 °C, the supernatant discarded, and the pellet washed with preheated RPMI medium containing albumax. A 1 μL pellet sample was used to prepare a Giemsa-stained smear for gametocytaemia determination by counting 2000 cells. The gametocytemia for each assay were 71%, 64% and 31%. The remaining pellet was adjusted to 1 mL with RPMI medium containing 10% human serum at 37 °C. Total cell counts were performed using a Neubauer chamber with a 10X diluted sample.
Each well contained 200,000 gametocytes in 150 μL without erythrocytes. After 48 h of incubation, a luciferase kit (Promega) was used to reveal the assay. Eighty microliters of supernatant were discarded, and the pellet was homogenized in the remaining content. Forty microliters of the sample were transferred to a clear 96-well plate containing lysis solution (1X), gently mixed, and moved to a white-bottomed 96-well plate. Luciferase (40 μL) was added, and luminescence was measured using a microplate reader with a 10-s integration time.

[2] = tested on: P. vivax oocysts and sporozoites in Anopheles darlingi; assay: Direct membrane feeding assay (DMFA), P. vivax gametocytes, A. darlingi mosquitoes; format: in vivo, Plasmodium vivax; settings: for reduction of the density of sporozoites per mosquito: 14 days after feeding; for reduction in the oocyst density per mosquito midgut: day 7
Description: Participants were recruited from patients diagnosed with P. vivax malaria via Giemsa-stained blood smears at CEPEM in Porto Velho, Rondônia, Brazil (#28176720.9.0000.0011). Criteria included: P. vivax parasitemia >2000 parasites/μL, age 18–85, no severe malaria, no concomitant diseases, nonpregnant, and consent to study procedures. Approximately 10 mL of venous blood was collected into heparin-coated vials, maintained at 37 °C, and transported to PIVEM for DMFA. Malaria treatment followed Brazilian Ministry of Health guidelines and was unaffected by study participation.
Anopheles darlingi mosquitoes are maintained in the PIVEM insectary at Fiocruz Rondônia since 2018. Mosquitoes were raised at a temperature of 26 °C ± 1 °C and a relative humidity of 70 ± 10%, being fed a 15% honey solution.
Before the DMFA, female mosquitoes were starved of sucrose overnight. Six P. vivax isolates were used, and 40–100 mosquitoes per group were fed P. vivax-infected blood for 30 min using a Hemotek membrane feeder at 37 °C. Unfed mosquitoes were removed, and engorged ones were maintained for sporogony, receiving a 15% honey solution refreshed every 2 days. Midguts were dissected on day 7 and salivary glands on day 14 postblood feeding, to assess midgut oocyst load and salivary gland sporozoite load, respectively.
Mosquitoes were anesthetized on ice, immersed in 70% ethanol, and dissected in PBS. Midguts were stained with 0.2% mercurochrome and examined microscopically for oocysts. Salivary glands were pooled (5 mosquitoes per sample), and homogenized in 15 μL RPMI, and sporozoites were counted using a Neubauer chamber.

[3] = tested on: P. berghei hepatic stages; assay: Hepatic stage bioluminescence assay, Huh-7 cells infected with luciferase-expressing sporozoites; format: cell-based, Plasmodium berghei; settings: Plasmodium berghei; Huh-7 cells, 48 h after sporozoite addition; read-out: IC50 (μM) Pb liver stages
Description: (§1) Huh-7 cells were cultured in RPMI 1640 medium (Sigma) supplemented with 10% v/v fetal bovine serum (FBS), 1% v/v penicillin/streptomycin, 1% v/v glutamine, 1% v/v nonessential amino acids, and 10 mM HEPES, pH 7. For compound dilution, a medium containing 1:1000 gentamicin (G) and 1:300 fungizone (F) was used. Cells were seeded at 1 × 10^4 cells/well in 96-well plates and incubated at 37 °C with 5% CO2. After 24 h, compounds were diluted in RPMI+F+G, and after removal of the culture medium, added to the cells in triplicate. DMSO and atovaquone were used as negative and positive controls, respectively. Following incubation for 1 h at 37 °C, 5% CO2, the cells were infected with luciferase-expressing P. berghei sporozoites (4,000 parasites per well) freshly extracted from the salivary glands of infected mosquitoes reared at the GIMM insectarium. The viability of Huh-7 cells exposed to the compounds was assessed 46 h later by the AlamarBlue assay (Invitrogen, UK) measurement, and parasite burden was measured 48 h after sporozoite addition using a bioluminescence assay (Biotium). IC50 values were calculated using GraphPad Prism through nonlinear regression analysis of normalized dose–response curves.

Huh-7 cells = assay: Alamar Blue cell confluency (cytotoxicity) in Huh-7 cells; format: cell-based
Description: as §1, with “For” for “Huh-7 cells were cultured in RPMI 1640 medium (Sigma) supplemented with 10% v/v fetal bovine serum (FBS), 1% v/v penicillin/streptomycin, 1% v/v glutamine, 1% v/v nonessential amino acids, and 10 mM HEPES, pH 7. For”, “DMSO and atovaquone were used as negative and positive controls, respectively.” left out
On the first day of the assay, the compounds were diluted at 10 and 1 μM in cRPMI medium supplemented with fungizone. and gentamicin. The culture medium of Huh-7 cells was removed and replaced with compound dilutions in triplicate. As a control, a DMSO dilution mimicking the highest compound concentration used was included. The cells were incubated for 1 h at 37 °C in a 5% CO2 atmosphere.
On the second day of the assay, compound toxicity was assessed by measuring cell confluency using the Alamar Blue/CellTiter Blue reagent. First, reagent aliquots stored at −20 °C were thawed and diluted at a 1:20 ratio in cRPMI. The culture medium was removed and replaced with 80 μL of the solution per well, followed by incubation at 37 °C and 5% CO2 for 1 h and 30 min. Fluorescence was measured using a plate reader with the Tecan i-Control software.

[4] = 20 μM, 48 h, late-stage (IV and V) gametocytes

Compound	Pf gametocytes inhibition [1]	inhibition at 20 µM [1, 4]	reduction of infection prevalence ([2]; 2 μM)	reduction of the density of sporozoites per mosquito ([2]; 2 μM)	reduction in the oocyst density per mosquito midgut ([2]; 2 μM)	reduction of infection prevalence ([2]; 10 μM)	reduction in the oocyst density per mosquito midgut ([2]; 10 μM)	IC50 [3]	Confluency % (Huh-7 cells; 1 μM)	Confluency % (Huh-7 cells; 10 μM)	Pf gametocytes Inhibition (%) [1, 4]	reduction of the density of sporozoites per mosquito ([2]; 10 μM)
CCCCCCCCCCCc1cc(=O)c2ccccc2[nH]1 [compound 1, 2-Undecilquinolin-4(1H)-one]	no activity	44 ± 4%	31%	39%	74%	71%	95%	0.25 ± 0.01 µM	97 ± 6%	79 ± 2%	–	–
CCCCCCOc1ccc(-c2cc(=O)c3ccccc3[nH]2)cc1 [compound 6, 2-(4-(Hexyloxy)-phenyl)-quinolin-4(1H)-one]	no activity	64%	–	31%	29%	–	53%	0.38 ± 0.04 µM	105 ± 3%	102 ± 11%	68 ± 25%	10%

From article PMC12631437, “Evaluation of the Activity of 4‑Quinolones against Multi-Life Stages of Plasmodium spp” (ACS Omega, 2025)
